Measurements reported in ChEMBL document CHEMBL1127152, “Design and synthesis of achiral 5-lipoxygenase inhibitors employing the cyclobutyl group” (Bioorg Med Chem Lett, 1993).

Target: T1, Polyunsaturated fatty acid 5-lipoxygenase (Homo sapiens, UniProt P09917)
T1 sequence (P09917 whole entry): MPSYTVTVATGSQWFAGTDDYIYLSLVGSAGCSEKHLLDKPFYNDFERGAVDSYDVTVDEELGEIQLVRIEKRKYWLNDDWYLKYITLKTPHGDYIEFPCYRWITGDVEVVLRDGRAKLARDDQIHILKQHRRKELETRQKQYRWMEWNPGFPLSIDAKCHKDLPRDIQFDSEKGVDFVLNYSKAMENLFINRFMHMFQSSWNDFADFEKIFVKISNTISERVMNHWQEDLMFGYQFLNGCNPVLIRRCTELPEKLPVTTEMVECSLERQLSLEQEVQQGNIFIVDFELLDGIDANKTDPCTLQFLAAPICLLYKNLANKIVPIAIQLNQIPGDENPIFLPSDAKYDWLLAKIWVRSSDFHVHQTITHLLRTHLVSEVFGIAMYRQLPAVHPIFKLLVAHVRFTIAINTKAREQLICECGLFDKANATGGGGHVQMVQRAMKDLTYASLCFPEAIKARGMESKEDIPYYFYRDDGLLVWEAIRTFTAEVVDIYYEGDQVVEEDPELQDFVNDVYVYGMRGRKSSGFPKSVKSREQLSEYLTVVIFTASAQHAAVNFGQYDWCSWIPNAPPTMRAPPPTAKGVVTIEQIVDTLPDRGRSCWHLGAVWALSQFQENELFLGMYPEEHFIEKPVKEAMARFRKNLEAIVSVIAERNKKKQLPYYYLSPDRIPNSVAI
Test: The compound was tested in vitro for inhibition against 5-lipoxygenase in intact human neutrophils

IC50	SMILES
380 nM	NC(=O)N(O)[C@H]1C[C@H](c2cc3ccccc3s2)C1
80 nM	CC(/C=C/c1cccc(Oc2ccc(F)cc2)c1)N(O)C(N)=O (stereo not drawn)
170 nM	NC(=O)N(O)[C@H]1C[C@@H](c2cccc(Oc3ccc(F)cc3)c2)C1
